10 molecules from ChEMBL document CHEMBL1800031, “Gold(III) chloride catalyzed regioselective synthesis of pyrano[3,4-b]indol-1(9H)-ones and evaluation of anticancer potential towards human cervix adenocarcinoma” (Bioorg Med Chem Lett, 2011) can be followed below.

For orientation: IC50 means the concentration that inhibits the measured activity by half. Low readings indicate inhibition by little substance, high ones a need for much substance.

The subject of this assay is HeLa. The assay can be described thus: Cytotoxicity against human HeLa cells after 48 hrs by MTT assay. In kind it is functional, cell-based.
On to `COc1ccc2[nH]c3c(=O)oc(-c4ccccc4)cc3c2c1`, for which the IC50 amounted to 0.33 µM.
As to `CCn1c2ccc(OC)cc2c2cc(-c3ccccc3)oc(=O)c21`, it took 1.2 µM to reach half-maximal inhibition (IC50).
Molecule `Cn1c2ccccc2c2cc(-c3ccccc3)oc(=O)c21` returned an IC50 of 1.9 µM. This IC50 is about 1.6-fold higher than that of the molecule before.
The result for `CCCCn1c2ccc(OC)cc2c2cc(-c3ccccc3)oc(=O)c21` reads 5 µM.
With `COc1ccc2c(c1)c1cc(-c3ccccc3)oc(=O)c1n2C` the figure was 0.22 µM; with `CCCCc1cc2c([nH]c3ccccc32)c(=O)o1`, 2.6 µM; with `O=c1oc(-c2ccccc2)cc2c1[nH]c1ccccc12`, 19.1 µM.
The molecule `COc1ccc2c(c1)c1cc(-c3ccccc3)oc(=O)c1n2Cc1ccccc1` yielded an IC50 of 6.7 µM.
The result for `CCCCn1c2ccccc2c2cc(-c3ccccc3)oc(=O)c21` reads 3.2 µM.
In turn, `CCn1c2ccccc2c2cc(-c3ccccc3)oc(=O)c21` came in with an IC50 of 11.3 µM.
